Experimental data reported in patent publication US11512090B2, “Muscarinic acetylcholine M1 receptor antagonists” (PIPELINE THERAPEUTICS, INC., priority 2018, dated 2022).
Like-named read-outs stand apart in the source and are kept apart here.

Columns and labels:
Type in all cases: cell-based
[1] = molecular target: T1, M2 (Homo sapiens, UniProt P08172); test: In vitro functional assay of muscarinic acetylcholine receptor activity, M2
T1 sequence (P08172 1-466): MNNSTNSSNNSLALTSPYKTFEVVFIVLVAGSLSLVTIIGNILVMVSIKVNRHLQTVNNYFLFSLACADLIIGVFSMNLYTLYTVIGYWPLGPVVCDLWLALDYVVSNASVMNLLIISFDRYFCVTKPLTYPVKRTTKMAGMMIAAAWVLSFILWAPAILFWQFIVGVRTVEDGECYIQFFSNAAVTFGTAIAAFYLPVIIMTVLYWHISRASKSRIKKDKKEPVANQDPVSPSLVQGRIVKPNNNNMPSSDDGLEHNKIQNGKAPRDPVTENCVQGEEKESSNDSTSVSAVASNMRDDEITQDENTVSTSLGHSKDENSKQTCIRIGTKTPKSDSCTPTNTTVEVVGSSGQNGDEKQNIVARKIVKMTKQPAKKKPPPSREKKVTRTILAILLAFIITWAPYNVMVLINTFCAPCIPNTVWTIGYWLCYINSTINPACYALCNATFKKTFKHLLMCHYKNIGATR

[2] = molecular target: T2, human M1 receptor (Homo sapiens, UniProt P11229); test: In vitro functional assay of muscarinic acetylcholine receptor activity (aequorin calcium flux, antagonist mode vs EC80 acetylcholine), M1
T2 sequence (P11229 1-460): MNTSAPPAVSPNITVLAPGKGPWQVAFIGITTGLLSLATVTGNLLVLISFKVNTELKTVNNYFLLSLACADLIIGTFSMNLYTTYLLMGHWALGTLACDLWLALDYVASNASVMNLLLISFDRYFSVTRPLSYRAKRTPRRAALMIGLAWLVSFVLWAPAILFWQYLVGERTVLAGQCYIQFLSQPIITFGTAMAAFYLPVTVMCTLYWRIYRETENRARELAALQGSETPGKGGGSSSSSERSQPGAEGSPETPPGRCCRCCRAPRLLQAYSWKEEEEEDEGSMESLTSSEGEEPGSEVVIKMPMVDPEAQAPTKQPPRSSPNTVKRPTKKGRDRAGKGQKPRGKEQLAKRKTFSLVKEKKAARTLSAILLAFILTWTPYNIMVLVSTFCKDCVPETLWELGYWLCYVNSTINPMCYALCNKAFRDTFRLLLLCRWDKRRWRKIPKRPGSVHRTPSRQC
In short: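 Antagonism at M1 was measured as a concentration-dependent reduction of the EC80 acetylcholine-evoked aequorin luminescence, from which IC50 was derived. Human M1 CHO-K1 aequorin cells were first loaded with 5 uM coelenterazine h for 4 h and exposed to compound for 30 min at room temperature.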

[3] = molecular target: M3 (Homo sapiens, UniProt P20309); test: In vitro functional assay of muscarinic acetylcholine receptor activity, M3; details: antagonist IC50 at M3; read-out: M3 IC50
Chain of M3 (P20309 whole entry): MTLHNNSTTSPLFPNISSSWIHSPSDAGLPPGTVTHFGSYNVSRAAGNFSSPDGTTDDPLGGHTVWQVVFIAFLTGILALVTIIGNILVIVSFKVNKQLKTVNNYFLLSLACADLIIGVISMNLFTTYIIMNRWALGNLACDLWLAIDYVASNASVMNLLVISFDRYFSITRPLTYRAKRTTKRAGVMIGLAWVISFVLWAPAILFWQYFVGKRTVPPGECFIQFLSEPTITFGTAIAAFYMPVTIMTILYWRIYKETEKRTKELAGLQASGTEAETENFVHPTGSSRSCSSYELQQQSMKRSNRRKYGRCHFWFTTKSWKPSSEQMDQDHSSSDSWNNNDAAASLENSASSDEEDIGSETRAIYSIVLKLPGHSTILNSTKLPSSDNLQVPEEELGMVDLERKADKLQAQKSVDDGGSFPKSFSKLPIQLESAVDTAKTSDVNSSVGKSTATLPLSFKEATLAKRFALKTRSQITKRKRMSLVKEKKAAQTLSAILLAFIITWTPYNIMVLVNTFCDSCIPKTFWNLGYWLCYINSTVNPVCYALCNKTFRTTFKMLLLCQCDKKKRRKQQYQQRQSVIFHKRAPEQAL

[4] = antagonist IC50 at M2, read-out: M2 IC50
[5] = CHO-K1 cells stably expressing human M1 receptor with Aequorin, decrease in EC80 acetylcholine response, read-out: M1 IC50

O=C(CCNCc1cccc2ncnn12)N1CC2CCC(C1)N2c1ccc(Cl)cn1 [Example 157, 1-[8-(5-chloropyridin-2-yl)-3,8-diazabicyclo[3.2.1]octan-3-yl]-3-[({[1,2,4]triazolo[1,5-a]pyridin-5-yl}methyl)amino]propan-1-one] was tested, and the IC50 [1, 4] was > 10 µM, the IC50 [2] was < 0.1 µM and the IC50 [3] was > 10 µM.

For Nc1cc(N2CCN(C(=O)CCS(=O)(=O)c3cccc4ncsc34)CC2)c(Cl)cn1 [Example 137, 1-[4-(2-amino-5-chloropyridin-4-yl)piperazin-1-yl]-3-(1,3-benzothiazole-7-sulfonyl)propan-1-one], the IC50 [1, 4] was > 10 µM, the IC50 [2, 5] was 1 to 10 µM and the IC50 [3] was > 10 µM.

With N#Cc1ccc(N2C3CCC2CN(C(=O)CCNCc2cccc4ncnn24)C3)cc1 [Example 171, 4-(3-{3-[({[1,2,4]triazolo[1,5-a]pyridin-5-yl}methyl)amino]propanoyl}-3,8-diazabicyclo[3.2.1]octan-8-yl)benzonitrile] the IC50 [1, 4] was > 10 µM, the IC50 [2] was 0.1 to 1 µM and the IC50 [3] was > 10 µM.

In the case of [2H]C([2H])(NCCC(=O)N1CC2CCC(C1)N2c1ccc(C#N)cn1)c1cccc2ncsc12 [Example 36, 6-[3-(3-[(benzo[d]thiazol-7-ylmethyl-d2)amino]propanoyl)-3,8-diazabicyclo[3.2.1]octan-8-yl]pyridine-3-carbonitrile], the IC50 [1, 4] is reported as 1 to 10 µM, the IC50 [2] is reported as < 0.1 µM and the IC50 [3] is reported as 1 to 10 µM.

O=C(CCNCc1cccc2ncccc12)N1C[C@H]2CC[C@@H](C1)N2c1ccncc1F [Example 10, 1-((1R,5S)-8-(3-fluoropyridin-4-yl)-3,8-diazabicyclo[3.2.1]octan-3-yl)-3-((quinolin-5-ylmethyl)amino)propan-1-one] was tested, and the IC50 [1, 4] was > 10 µM, the IC50 [2, 5] was 1 to 10 µM and the IC50 [3] was > 10 µM.

For Cc1cc(Cl)cnc1N1CCN(C(=O)CCCc2cccc3ncccc23)[C@H](C)C1 [Example 79, (R)-1-(4-(5-chloro-3-methylpyridin-2-yl)-2-methylpiperazin-1-yl)-4-(quinolin-5-yl)butan-1-one], the IC50 [1, 4] was < 0.1 µM, the IC50 [2, 5] was < 0.1 µM and the IC50 [3] was 0.1 to 1 µM.

Cc1cc(F)cnc1N1[C@@H]2CC[C@H]1CN(C(=O)CCCc1cccc3ncccc13)C2 [Example 52, 1-((1R,5S)-8-(5-fluoro-3-methylpyridin-2-yl)-3,8-diazabicyclo[3.2.1]octan-3-yl)-4-(quinolin-5-yl)butan-1-one] was tested, and the IC50 [1] was 0.1 to 1 µM, the IC50 [2] was 0.1 to 1 µM and the IC50 [3] was 1 to 10 µM.

Cc1cc(C#N)ncc1N1CCN(C(=O)CCS(=O)(=O)c2cccc3nccn23)[C@@H](C)C1 [Example 144, 5-[(3S)-4-(3-{imidazo[1,2-a]pyridine-5-sulfonyl}propanoyl)-3-methylpiperazin-1-yl]-4-methylpyridine-2-carbonitrile] was tested, and the IC50 [1, 4] was > 10 µM, the IC50 [2, 5] was < 0.1 µM and the IC50 [3] was > 10 µM.

For N#Cc1ccc(C2=CC3CCC2CN3C(=O)CCS(=O)(=O)c2cccc3ncsc23)nc1 (stereo not drawn) [Example 27, 6-{2-[3-(1,3-benzothiazole-7-sulfonyl)propanoyl]-2-azabicyclo[2.2.2]oct-5-en-5-yl}pyridine-3-carbonitrile], the IC50 [1, 4] was 0.1 to 1 µM, the IC50 [2, 5] was < 0.1 µM and the IC50 [3] was 1 to 10 µM.

For N#Cc1ccc(N2C3CCC2CN(C(=O)COCCc2cccn4ncnc24)C3)nc1 [Example 180, 6-{3-[2-(2-{[1,2,4]triazolo[1,5-a]pyridin-8-yl}ethoxy)acetyl]-3,8-diazabicyclo[3.2.1]octan-8-yl}pyridine-3-carbonitrile], the IC50 [1, 4] was 1 to 10 µM, the IC50 [2] was < 0.1 µM and the IC50 [3] was > 10 µM.

With O=C(CCOCc1cccc2ncccc12)N1C[C@H]2CC[C@@H](C1)N2c1ccc(F)cn1 [Example 48, 1-((1R,5S)-8-(5-fluoropyridin-2-yl)-3,8-diazabicyclo[3.2.1]octan-3-yl)-3-(quinolin-5-ylmethoxy)propan-1-one] the IC50 [1, 4] was 1 to 10 µM, the IC50 [2] was 0.1 to 1 µM and the IC50 [3] was > 10 µM.

Cc1cc(F)cnc1N1CCN(C(=O)CNCc2cccc3ncsc23)[C@@H](C)C1 [Example 89, (S)-2-((benzo[d]thiazol-7-ylmethyl)amino)-1-(4-(5-fluoro-3-methylpyridin-2-yl)-2-methylpiperazin-1-yl)ethan-1-one] was tested, and the IC50 [1, 4] was > 10 µM, the IC50 [2, 5] was 1 to 10 µM and the IC50 [3] was > 10 µM.

In the case of O=C([C@H]1C[C@H](Oc2cccc3ncsc23)C1)N1CC2CCC(C1)N2c1ncc(Cl)cn1 [Example 64, ((1r,3R)-3-(benzo[d]thiazol-7-yloxy)cyclobutyl)((1R,5S)-8-(5-chloropyrimidin-2-yl)-3,8-diazabicyclo[3.2.1]octan-3-yl)methanone], the IC50 [1, 4] is reported as 1 to 10 µM, the IC50 [2, 5] is reported as > 10 µM and the IC50 [3] is reported as 1 to 10 µM.

With N#Cc1ccc(N2C3CCC2CN(C(=O)CCN(Cc2cccc4ncnn24)C2CC2)C3)nc1 [Example 164, 6-(3-{3-[cyclopropyl({[1,2,4]triazolo[1,5-a]pyridin-5-yl}methyl)amino]propanoyl}-3,8-diazabicyclo[3.2.1]octan-8-yl)pyridine-3-carbonitrile] the IC50 [1, 4] was 1 to 10 µM, the IC50 [2] was < 0.1 µM and the IC50 [3] was 1 to 10 µM.

For N#Cc1ccc(N2C3CCC2CN(C(=O)COCc2cccn4ncnc24)C3)nc1 [Example 184, 6-{3-[2-({[1,2,4]triazolo[1,5-a]pyridin-8-yl}methoxy)acetyl]-3,8-diazabicyclo[3.2.1]octan-8-yl}pyridine-3-carbonitrile], the IC50 [1, 4] was > 10 µM, the IC50 [2] was < 0.1 µM and the IC50 [3] was > 10 µM.

With O=C(CCNCc1c(F)ccc2nccn12)N1CC2CCC(C1)N2c1ccc(C2CC2)cn1 [Example 172, 1-[8-(5-cyclopropylpyridin-2-yl)-3,8-diazabicyclo[3.2.1]octan-3-yl]-3-[({6-fluoroimidazo[1,2-a]pyridin-5-yl}methyl)amino]propan-1-one] the IC50 [1, 4] was 1 to 10 µM, the IC50 [2, 5] was 1 to 10 µM and the IC50 [3] was > 10 µM.

For C[C@H]1CN(c2ccn3nccc3c2)CCN1C(=O)CCS(=O)(=O)c1cccc2ncsc12 [Example 113, (S)-3-(benzo[d]thiazol-7-ylsulfonyl)-1-(2-methyl-4-(pyrazolo[1,5-a]pyridin-5-yl)piperazin-1-yl)propan-1-one], the IC50 [1, 4] was 1 to 10 µM, the IC50 [2, 5] was 1 to 10 µM and the IC50 [3] was > 10 µM.

For N#Cc1cnccc1N1CCN(C(=O)CCCc2cccc3ncccc23)CC1 [Example 68, 4-(4-(4-(quinolin-5-yl)butanoyl)piperazin-1-yl)nicotinonitrile], the IC50 [1, 4] was > 10 µM, the IC50 [2, 5] was 1 to 10 µM and the IC50 [3] was 1 to 10 µM.

In the case of N#Cc1cc(N2C3CCC2CN(C(=O)CCS(=O)(=O)c2cccc4nccn24)C3)ccc1F [Example 130, 2-fluoro-5-[3-(3-{imidazo[1,2-a]pyridine-5-sulfonyl}propanoyl)-3,8-diazabicyclo[3.2.1]octan-8-yl)benzonitrile], the IC50 [1, 4] is reported as 1 to 10 µM, the IC50 [2] is reported as < 0.1 µM and the IC50 [3] is reported as > 10 µM.

N#Cc1ccc(N2C3CCC2CN(C(=O)C2CC(Cc4cccc5ncsc45)C2)C3)nc1 (stereo not drawn) [Example 31, 6-(3-{3-[(1,3-benzothiazol-7-yl)methyl]cyclobutanecarbonyl}-3,8-diazabicyclo[3.2.1]octan-8-yl)pyridine-3-carbonitrile] was tested, and the IC50 [1, 4] was 1 to 10 µM, the IC50 [2] was < 0.1 µM and the IC50 [3] was 1 to 10 µM.

With N#Cc1ccc(N2[C@@H]3CC[C@H]2CN(C(=O)[C@H]2C[C@H](Nc4cccc5ncccc45)C2)C3)nc1 [Example 45, 6-(3-{3-[(quinolin-5-yl)amino]cyclobutanecarbonyl}-3,8-diazabicyclo[3.2.1]octan-8-yl)pyridine-3-carbonitrile] the IC50 [1, 4] was 1 to 10 µM, the IC50 [2] was 0.1 to 1 µM and the IC50 [3] was > 10 µM.
